# Results: ChEMBL document CHEMBL4270577, “Synthesis, anticancer activity and molecular modeling studies of 1,2,4-triazole derivatives as EGFR inhibitors” (Eur J Med Chem, 2018)
# pIC50: −log10 of the molar value.
# What was measured:
# MCF7 = experiment: Growth inhibition of human MCF7 cells at 10 uM incubated for 48 hrs by sulforhodamine B assay relative to control; type: functional; details: MCF7, 48 h, read-out: GI
# SK-MEL-2 = experiment: Growth inhibition of human SK-MEL-2 cells at 10 uM incubated for 48 hrs by sulforhodamine B assay relative to control; type: functional; details: SK-MEL-2, 48 h, read-out: GI
# HOP-62 = experiment: Growth inhibition of human HOP62 cells at 10 uM incubated for 48 hrs by sulforhodamine B assay relative to control; type: functional; details: HOP-62, 48 h, read-out: GI
# SF-268 = experiment: Growth inhibition of human SF268 cells at 10 uM incubated for 48 hrs by sulforhodamine B assay relative to control; type: functional; details: SF-268, 48 h, read-out: GI
# NCI-H522 = experiment: Growth inhibition of human NCI-H522 cells at 10 uM incubated for 48 hrs by sulforhodamine B assay relative to control; type: functional; details: NCI-H522, 48 h, read-out: GI
# HL-60(TB) = experiment: Growth inhibition of human HL-60(TB) cells at 10 uM incubated for 48 hrs by sulforhodamine B assay relative to control; type: functional; details: HL-60, 48 h, read-out: GI
# MOLT-4 = experiment: Growth inhibition of human MOLT4 cells at 10 uM incubated for 48 hrs by sulforhodamine B assay relative to control; type: functional; details: MOLT-4, 48 h, read-out: GI
# A498 = experiment: Growth inhibition of human A498 cells at 10 uM incubated for 48 hrs by sulforhodamine B assay relative to control; type: functional; details: A498, 48 h, read-out: GI
# CCRF-CEM = experiment: Growth inhibition of human CCRF-CEM cells at 10 uM incubated for 48 hrs by sulforhodamine B assay relative to control; type: functional; details: read-out: GI
# SK-MEL-28 = experiment: Growth inhibition of human SK-MEL-28 cells at 10 uM incubated for 48 hrs by sulforhodamine B assay relative to control; type: functional; details: SK-MEL-28, 48 h, read-out: GI
# SK-MEL-5 = experiment: Growth inhibition of human SK-MEL-5 cells at 10 uM incubated for 48 hrs by sulforhodamine B assay relative to control; type: functional; details: SK-MEL-5, 48 h, read-out: GI
# OVCAR-8 = experiment: Growth inhibition of human OVCAR8 cells at 10 uM incubated for 48 hrs by sulforhodamine B assay relative to control; type: functional; details: OVCAR-8, 48 h, read-out: GI
# SW-620 = experiment: Growth inhibition of human SW620 cells at 10 uM incubated for 48 hrs by sulforhodamine B assay relative to control; type: functional; details: SW-620, 48 h, read-out: GI
# HOP-92 = experiment: Growth inhibition of human HOP92 cells at 10 uM incubated for 48 hrs by sulforhodamine B assay relative to control; type: functional; details: HOP-92, 48 h, read-out: GI
# K562 = experiment: Growth inhibition of human K562 cells at 10 uM incubated for 48 hrs by sulforhodamine B assay relative to control; type: functional; details: K562, 48 h, read-out: GI
# UACC-62 = experiment: Growth inhibition of human UACC62 cells at 10 uM incubated for 48 hrs by sulforhodamine B assay relative to control; type: functional; details: UACC-62, 48 h, read-out: GI
# T47D = experiment: Growth inhibition of human T47D cells at 10 uM incubated for 48 hrs by sulforhodamine B assay relative to control; type: functional; details: read-out: GI
# PC-3 = experiment: Growth inhibition of human PC3 cells at 10 uM incubated for 48 hrs by sulforhodamine B assay relative to control; type: functional; details: PC-3, 48 h, read-out: GI
# UACC-257 = experiment: Growth inhibition of human UACC257 cells at 10 uM incubated for 48 hrs by sulforhodamine B assay relative to control; type: functional; details: UACC-257, 48 h, read-out: GI
# SF-539 = experiment: Growth inhibition of human SF539 cells at 10 uM incubated for 48 hrs by sulforhodamine B assay relative to control; type: functional; details: SF-539, 48 h, read-out: GI
# Hs-578T = experiment: Growth inhibition of human Hs 578T cells at 10 uM incubated for 48 hrs by sulforhodamine B assay relative to control; type: functional; details: read-out: GI
# Malme-3M = experiment: Growth inhibition of human MALME-3M cells at 10 uM incubated for 48 hrs by sulforhodamine B assay relative to control; type: functional; details: read-out: GI
# NCI-H226 = experiment: Growth inhibition of human NCI-H226 cells at 10 uM incubated for 48 hrs by sulforhodamine B assay relative to control; type: functional; details: NCI-H226, 48 h, read-out: GI
# A549 [1] = experiment: Growth inhibition of human A549/ATCC cells at 10 uM incubated for 48 hrs by sulforhodamine B assay relative to control; type: functional; details: A549, 48 h, read-out: GI
# NCI-H460 = experiment: Antiproliferative activity against human H460 cells after 48 hrs by propidium iodide staining-based fluorometric analysis; type: functional, cell-based; details: NCI-H460, 48 h
# NCI-H23 = experiment: Growth inhibition of human NCI-H23 cells at 10 uM incubated for 48 hrs by sulforhodamine B assay relative to control; type: functional; details: NCI-H23, 48 h, read-out: GI
# HT-29 [2] = experiment: Growth inhibition of human HT-29 cells at 10 uM incubated for 48 hrs by sulforhodamine B assay relative to control; type: functional; details: HT-29, 48 h, read-out: GI
# MDA-MB-435 = experiment: Growth inhibition of human MDA-MB-435 cells at 10 uM incubated for 48 hrs by sulforhodamine B assay relative to control; type: functional; details: MDA-MB-435, 48 h, read-out: GI
# KM12 = experiment: Growth inhibition of human KM12 cells at 10 uM incubated for 48 hrs by sulforhodamine B assay relative to control; type: functional; details: KM12, 48 h, read-out: GI
# NCI-H322M = experiment: Growth inhibition of human NCI-H322M cells at 10 uM incubated for 48 hrs by sulforhodamine B assay relative to control; type: functional; details: read-out: GI
# SN12C = experiment: Growth inhibition of human SN12C cells at 10 uM incubated for 48 hrs by sulforhodamine B assay relative to control; type: functional; details: read-out: GI
# HT-29 [3] = experiment: Antiproliferative activity against human HT-29 cells after 48 hrs by propidium iodide staining-based fluorometric analysis; type: functional, cell-based; details: HT-29, 48 h
# U-251 = experiment: Growth inhibition of human U251 cells at 10 uM incubated for 48 hrs by sulforhodamine B assay relative to control; type: functional; details: U-251, 48 h, read-out: GI
# SR = experiment: Growth inhibition of human SR cells at 10 uM incubated for 48 hrs by sulforhodamine B assay relative to control; type: functional; details: read-out: GI
# SNB-75 = experiment: Growth inhibition of human SNB75 cells at 10 uM incubated for 48 hrs by sulforhodamine B assay relative to control; type: functional; details: SNB-75, 48 h, read-out: GI
# PANC-1 = experiment: Antiproliferative activity against human PANC1 cells after 48 hrs by propidium iodide staining-based fluorometric analysis; type: functional, cell-based; details: PANC-1, 48 h
# TK-10 = experiment: Growth inhibition of human TK10 cells at 10 uM incubated for 48 hrs by sulforhodamine B assay relative to control; type: functional; details: TK-10, 48 h, read-out: GI
# MIA PaCa-2 = experiment: Antiproliferative activity against human MIAPaCa2 cells after 48 hrs by propidium iodide staining-based fluorometric analysis; type: functional, cell-based; details: MIA PaCa-2, 48 h
# SK-OV-3 = experiment: Growth inhibition of human SKOV3 cells at 10 uM incubated for 48 hrs by sulforhodamine B assay relative to control; type: functional; details: SK-OV-3, 48 h, read-out: GI
# UO-31 = experiment: Growth inhibition of human UO31 cells at 10 uM incubated for 48 hrs by sulforhodamine B assay relative to control; type: functional; details: UO-31, 48 h, read-out: GI
# RPMI-8226 = experiment: Growth inhibition of human RPMI8226 cells at 10 uM incubated for 48 hrs by sulforhodamine B assay relative to control; type: functional; details: RPMI-8226, 48 h, read-out: GI
# [4] = biological target: Epidermal growth factor receptor (Homo sapiens, UniProt P00533); experiment: Inhibition of His6-tagged recombinant EGFR cytoplasmic domain (645 to 1186 residues) (unknown origin) expressed in baculovirus infected Sf9 insect cells preincubated for 10 mins followed by ATP-MgCl2 addition and measured after 1 hr by DELFIA/time-resolved fluorometric analysis
# A549 [5] = experiment: Cell cycle arrest in human A549 cells assessed as accumulation at S phase at 0.4 uM after 24 hrs by propidium iodide staining based flow cytometry (reference value: 27.9%); type: functional
# A549 [6] = experiment: Cell cycle arrest in human A549 cells assessed as accumulation at G2 phase at 0.4 uM after 24 hrs by propidium iodide staining based flow cytometry (reference value: 4.19%); type: functional
# A549 [7] = experiment: Cell cycle arrest in human A549 cells assessed as accumulation at G1 phase at 0.4 uM after 24 hrs by propidium iodide staining based flow cytometry (reference value: 67.52%); type: functional
# A549 [8] = experiment: Induction of apoptosis in human A549 cells assessed as late apoptotic cells at 0.4 uM after 24 hrs by Annexin V/propidium iodide staining based flow cytometric analysis (reference value: 0.08%); type: functional
# A549 [9] = experiment: Induction of apoptosis in human A549 cells assessed as early apoptotic cells at 0.4 uM after 24 hrs by Annexin V/propidium iodide staining based flow cytometric analysis (reference value: 0.22%); type: functional
# A549 [10] = experiment: Induction of apoptosis in human A549 cells assessed as necrotic cells at 0.4 uM after 24 hrs by Annexin V/propidium iodide staining based flow cytometric analysis (reference value: 0.09%); type: functional
# A549 [11] = experiment: Induction of apoptosis in human A549 cells assessed as viable cells at 0.4 uM after 24 hrs by Annexin V/propidium iodide staining based flow cytometric analysis (reference value: 98.03%); type: functional; details: A549, 24 h, read-out: Activity
# Sequence of Epidermal growth factor receptor (P00533 whole entry, the tested form may be a part): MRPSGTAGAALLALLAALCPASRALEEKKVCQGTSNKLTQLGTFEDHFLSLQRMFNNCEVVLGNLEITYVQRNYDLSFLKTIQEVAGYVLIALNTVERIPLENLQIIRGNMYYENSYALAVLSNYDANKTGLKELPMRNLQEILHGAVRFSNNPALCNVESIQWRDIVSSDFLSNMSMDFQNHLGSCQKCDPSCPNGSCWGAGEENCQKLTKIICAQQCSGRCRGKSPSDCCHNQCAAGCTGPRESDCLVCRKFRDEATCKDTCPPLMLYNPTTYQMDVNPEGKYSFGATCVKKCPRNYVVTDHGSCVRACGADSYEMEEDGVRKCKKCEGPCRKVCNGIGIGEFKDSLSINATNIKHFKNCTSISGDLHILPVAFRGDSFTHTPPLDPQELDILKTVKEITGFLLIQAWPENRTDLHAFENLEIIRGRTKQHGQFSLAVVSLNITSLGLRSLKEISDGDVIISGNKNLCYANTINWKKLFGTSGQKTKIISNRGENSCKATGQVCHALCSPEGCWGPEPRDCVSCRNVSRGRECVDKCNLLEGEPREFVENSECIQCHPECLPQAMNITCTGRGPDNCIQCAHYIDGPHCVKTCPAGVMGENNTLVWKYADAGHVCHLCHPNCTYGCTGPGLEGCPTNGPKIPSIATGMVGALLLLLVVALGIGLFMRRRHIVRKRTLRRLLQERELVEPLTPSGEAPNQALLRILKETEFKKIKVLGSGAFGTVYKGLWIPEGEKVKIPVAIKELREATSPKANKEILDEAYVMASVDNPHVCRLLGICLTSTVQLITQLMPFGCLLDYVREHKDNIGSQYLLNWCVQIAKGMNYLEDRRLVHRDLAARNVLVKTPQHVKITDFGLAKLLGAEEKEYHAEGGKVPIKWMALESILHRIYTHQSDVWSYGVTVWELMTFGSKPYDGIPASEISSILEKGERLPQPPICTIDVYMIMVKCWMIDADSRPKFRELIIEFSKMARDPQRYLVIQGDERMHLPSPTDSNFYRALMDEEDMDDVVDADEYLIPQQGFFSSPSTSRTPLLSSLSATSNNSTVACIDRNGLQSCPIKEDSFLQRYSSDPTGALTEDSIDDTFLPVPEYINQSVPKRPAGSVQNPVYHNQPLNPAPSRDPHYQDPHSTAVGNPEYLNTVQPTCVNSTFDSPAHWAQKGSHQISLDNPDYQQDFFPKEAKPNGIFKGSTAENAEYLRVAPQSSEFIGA
structure (smiles),measurement,setting,value
COc1cc(-c2nc(N)n(CC(=O)Nc3ccc(/C(C)=N\O)cc3)n2)cc(OC)c1OC,inhibition of growth at 10 µM,MCF7,10.8%
same,inhibition of growth at 10 µM,SK-MEL-2,8%
same,inhibition of growth at 10 µM,HOP-62,5.54%
same,inhibition of growth at 10 µM,SF-268,6.49%
same,inhibition of growth at 10 µM,NCI-H522,29.2%
same,inhibition of growth at 10 µM,HL-60(TB),8.41%
same,inhibition of growth at 10 µM,MOLT-4,8.41%
same,inhibition of growth at 10 µM,A498,11.2%
same,inhibition of growth at 10 µM,CCRF-CEM,15.5%
same,inhibition of growth at 10 µM,SK-MEL-28,5.76%
same,inhibition of growth at 10 µM,SK-MEL-5,2.08%
same,inhibition of growth at 10 µM,OVCAR-8,25.7%
same,inhibition of growth at 10 µM,SW-620,4.8%
same,inhibition of growth at 10 µM,HOP-92,11.8%
same,inhibition of growth at 10 µM,K562,3.93%
same,inhibition of growth at 10 µM,UACC-62,16.4%
same,inhibition of growth at 10 µM,T47D,8.77%
same,inhibition of growth at 10 µM,PC-3,23.3%
same,inhibition of growth at 10 µM,UACC-257,36.3%
same,inhibition of growth at 10 µM,SF-539,2.92%
same,inhibition of growth at 10 µM,Hs-578T,17.9%
same,inhibition of growth at 10 µM,Malme-3M,3.25%
same,inhibition of growth at 10 µM,NCI-H226,5.19%
same,inhibition of growth at 10 µM,A549 [1],25.8%
same,pIC50,NCI-H460,5.10
same,inhibition of growth at 10 µM,NCI-H23,4.21%
same,inhibition of growth at 10 µM,HT-29 [2],13.6%
same,inhibition of growth at 10 µM,MDA-MB-435,18%
same,inhibition of growth at 10 µM,KM12,2.75%
same,inhibition of growth at 10 µM,NCI-H322M,5.82%
same,inhibition of growth at 10 µM,SN12C,4%
same,pIC50,HT-29 [3],5.10
same,inhibition of growth at 10 µM,U-251,14.2%
same,inhibition of growth at 10 µM,SR,17%
same,inhibition of growth at 10 µM,SNB-75,25.9%
same,pIC50,PANC-1,5.28
same,inhibition of growth at 10 µM,TK-10,9.11%
same,pIC50,MIA PaCa-2,5.24
same,inhibition of growth at 10 µM,SK-OV-3,12.1%
same,inhibition of growth at 10 µM,UO-31,20.5%
same,inhibition of growth at 10 µM,RPMI-8226,5.69%
COc1cc(-c2nc3sc(-c4ccc(Cl)cc4)cn3n2)cc(OC)c1OC,pIC50,[4],5.77
same,Activity,A549 [5],12.69%
same,Activity,A549 [6],22.92%
same,Activity,A549 [7],49.52%
same,Activity,A549 [8],7.65%
same,pIC50,NCI-H460,5.52
same,pIC50,HT-29 [3],5.46
same,Activity,A549 [9],5.38%
same,Activity,A549 [10],1.84%
same,viability at 0.4 µM,A549 [11],83.5%
same,pIC50,PANC-1,5.46
same,pIC50,MIA PaCa-2,5.41
